Measurements taken from patent US20080293691A1, “Treatment Method” (SMITHKLINE BEECHAM CORPORATION, priority 2005, published 2008).

Columns and labels:
[1] = tested on: choroidal neovascularization (CNV); assay: Prevention model for CNV (treatment begun before laser-induced retinal injury in mice); format: in vivo; details: oral twice daily from one day before retinal burning, 100 mg/kg Example 1, 45 mg/kg Example 3, or both, read fourteen days after burning, FIG. 2
Method: See the Examples section for additional information.
(§1) Mice were anesthetized and the pupils were dilated. Burns of krypton laser photocoagulation were delivered to the retina. Administration of the compound described in Example 1 was initiated seven days after the laser-induced injury. Oral doses of either the vehicle alone or vehicle containing the compound of formula (I) (designated as VEGF R in FIG. 1) at a dose or 4 mg/kg, 20 mg/kg, or 100 mg/kg were administered twice daily for seven days. After seven day of treatment, the mice were perfused with fluorescein-labeled dextran, and the area of choroidal neovascularization was quantitated.
In this experiment, the compound described in Example 1 (Designated as VEGF R in FIG. 2), Example 3 (designated as vitronectin in FIG. 2), or a combination of the compounds described in Example 1 and Example 3 (designated as “both” in FIG. 2) were administered to each mouse beginning one day before retinal burning was performed according to the methods described in Example 4. The compounds were administered orally twice daily at a dosage of 100 mg/kg for the compound of Example 1 or 45 mg/kg for the compound of Example 3. Fourteen days after the retinal burning, the CNV area was quantitated as described above.

[2] = tested on: choroidal neovascularization (CNV); assay: Regression model for CNV (laser-induced choroidal neovascularization in mice); format: in vivo; details: oral 4, 20 or 100 mg/kg twice daily for seven days, started seven days after laser-induced injury, compared with vehicle/untreated
Excerpt: In this regression model, CNV was induced in mice by laser burns on the posterior pole of the retina. Seven days after the laser-induced injury, the mice began a regime in which they were given either vehicle alone or 5-[[4-[(2,3-Dimethyl-2H-indazol-6-yl)methylamino]-2-pyrimidinyl]amino]-2-methylbenzenesulfonamide at the indicated doses. Seven days after this regime was initiated, the size of the CNV lesions was quantitated. See the Examples section for additional information.
as §1

Row | Compound | CNV area (size of choroidal neovascular lesions) [1] | area of choroidal neovascularization (size of CNV lesions) ([2]; FIG. 1) | area of choroidal neovascularization (size of CNV lesions) ([2]; FIG. 1, listed as Pazopanib)
1 | O=C(O)C[C@@H]1Cc2ccc(OCCCNc3ccccn3)cc2CN(CC(F)(F)F)C1=O [Example 3, (S)-3-oxo-8-[3-(pyridin-2-ylamino)-1-propyloxy]-2-(2,2,2-trifluoroethyl)-2,3,4,5-tetrahydro-1H-2-benzazepine-4-acetic acid] | a decrease in size of the resulting choroidal neovascular lesions |  | 
2 | Cc1ccc(Nc2nccc(N(C)c3ccc4c(C)n(C)nc4c3)n2)cc1S(N)(=O)=O [pazopanib, 5-({4-[(2,3-dimethyl-2H-indazol-6-yl)(methyl)amino]pyrimidin-2-yl}amino)-2-methylbenzenesulfonamide] | a decrease in size of the resulting choroidal neovascular lesions | a decrease in the size of the resulting choroidal neovascular lesions | decreased the CNV area in a dose-specific manner
